Assay in all cases: NCI-60 cell line screen, 48 h
For test [1], the system named is SF-268 CNS.
In test [2] the test system is UO-31 renal.
Test [3] concerns MDA-MB-435.
Test [4] relates to CAKI-1 renal.
The subject of test [5] is MDA-MB-231 breast.
In test [6] the test system is K-562 leukemia.
Test [7] relates to SNB-19 CNS.
The test system of test [8] is DU-145 prostate.
In test [9] the test system is BT-549 breast.
For test [10], the system named is HCC-2998 colon.

30 molecules from PubChem BioAssay (NCI) can be followed below.

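Growth conditions: 96-well plates. Treatment: test compound, 48 hours, 5 concentrations. Analysis: linear interpolation between bracketing concentrations; unreached endpoints set to highest concentration. GI50 = concentration required for 50% inhibition of growth. TGI is the concentration that stops growth completely.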

On to `O=C(O)c1ccccc1NCn1c(=S)sc2ccccc21`, for which the TGI in [1], in [2], in test [3], in test [4], in test [5] and in test [6] was > 100 µM each time. For the same molecule, the TGI in [7], in test [8] and in [9] was > 100 µM throughout.
For `N#CCc1cccc(CC#N)c1Br`, the TGI in test [1], in test [2], in [4], in [6] and in test [7] was > 100 µM in each case.
On to `CC1(C)OC(=O)C(=C2CCC(C(=O)Nc3cccc(C(F)(F)F)c3)N2)C(=O)O1` (centres undefined), for which the TGI in [1] was > 100 µM; in test [2] it was > 100 µM; in test [4] it was 26.6 µM; in [6], > 100 µM; in [10] it was > 100 µM; in test [7], > 100 µM.
Consider `COCC(C(=O)OC1C/C=C/C=C/C(=O)OC(C(C)C(O)C(C)CCC(OC(=O)C(C)N(C)C)C(C)C(OC(C)=O)C(C)/C=C/N(C)C=O)C/C=C/C(OC)CC(C)C/C=C(\C)C(OC)CCC(C)C(O)C1C)N(C)C` (centres undefined), for which the GI50 in [1] is < 0.0001 µM; in test [2] it was 0.00104 µM; in [4], < 0.0001 µM; in test [5], < 0.0001 µM; in [6], < 0.0001 µM; in test [10], < 0.0001 µM. The GI50 in test [7] is < 0.0001 µM; in test [8], < 0.0001 µM; in [9] it was 0.00677 µM. The TGI in test [1] is 0.00161 µM; in [2], 0.169 µM; in [4], 0.007 µM; in [5], 0.00136 µM; in [6], 0.116 µM; in test [10], 0.237 µM. For the same molecule, the values for the TGI in test [7], in test [8] and in test [9] were 0.111 µM, 0.000156 µM and 0.0915 µM, respectively.
As for `COc1cccc(-c2nc3sccn3c2-c2ccnc(NCCCNS(=O)(=O)c3ccccc3)c2)c1`, the GI50 in [1] is 3.46 µM; in test [2] it was 2.07 µM; in test [3], 3.53 µM; in test [4] it was 2.81 µM; in [5], 3.48 µM; in test [6], 2.57 µM. Moreover, the GI50 in test [10] was 4.38 µM; in [7], 4.92 µM; in test [8], 3.14 µM. Also, the TGI in test [1], in test [2], in [3], in test [4], in [5] and in test [6] was > 100 µM in each case. The TGI in test [10], in [7] and in [8] was > 100 µM throughout.
As to `COc1cc2c(c(OC)c1OC)C(=O)NCCC2`, the TGI in test [1], in [2], in test [4], in test [6], in test [10] and in test [7] was > 100 µM throughout.
On to `COc1cc2c3c(n(CCCNCCCNCCCN)c(=O)c2cc1OC)-c1cc2c(cc1C3=O)OCO2`, for which the GI50 in [1] was > 100 µM; in test [2], > 100 µM; in [3] it was 68.4 µM; in [4] it was 26.3 µM; in test [5] it was > 100 µM; in test [7], > 100 µM. Besides, the GI50 in test [8] was > 100 µM. Moreover, the TGI in test [1], in [2], in test [3], in test [4], in [5] and in test [7] was > 100 µM in each case. In test [8], the TGI was > 100 µM.
In the case of `CN(C)CCN1CCc2c([nH]c3ccccc23)C1c1cccnc1` (centres undefined), the TGI in test [1], in test [2], in test [4], in test [6], in test [10] and in test [7] was > 100 µM throughout.
For the molecule `COc1ccc(/C=C\c2cc(OC)c(OC)c(OC)c2)cc1`, the GI50 in test [1] was 0.0443 µM. In addition, the TGI in [1] was > 100 µM; in test [2] it was 8.66 µM; in test [4] it was 43.4 µM; in test [6], > 100 µM.
With `COc1ccc(/C=N/NS(=O)(=O)c2ccccc2)cc1`, the TGI in test [1], in test [2], in test [4], in [6] and in test [10] was > 100 µM in each case.
`Cc1ccc(S(=O)C(C)C(Cl)c2ccccc2)cc1` (centres undefined): the TGI in [1], in test [2], in test [4], in test [6] and in test [10] was > 100 µM in each case.
For `CN(C)c1ccc(C(O)C2=CC(=O)c3ccccc3C2=O)cc1` (centres undefined), the GI50 in [1] was > 100 µM; in test [2], 6.46 µM; in test [3], 5.94 µM; in test [4] it was 7.87 µM; in test [10], 17 µM; in test [8] it was 2.23 µM. Also, the GI50 in [9] was 2.58 µM. Besides, the TGI in test [1] is > 100 µM; in test [2] it was 19.3 µM; in [3], 28 µM; in test [4], 32.1 µM; in test [10] it was 38.7 µM; in test [8], 6.27 µM. Moreover, in test [9], the TGI turned out to be 6.25 µM.
Regarding `CCCCC1(C(NC(=O)c2ccccc2Cl)c2ccncc2)C(=O)N(c2ccccc2)N(c2ccccc2)C1=O` (centres undefined), the TGI in test [1], in [2], in test [6], in test [10] and in [7] was > 100 µM each time.
Turning to `Cc1cc(Cl)ccc1NC(=O)C1C(=O)N(c2ccc(Cl)cc2C)C(=O)/C1=N\NC(N)=S` (centres undefined), the TGI was > 100 µM in [1]; 41.1 µM in test [2]; 57.8 µM in test [6]; 44.5 µM in test [10]; > 100 µM in test [7].
As to `O=NNc1ccc(S(=O)(=O)c2ccc3ccccc3c2)cn1`, the TGI in test [1] is > 100 µM; in test [2], 58.4 µM; in [4], > 100 µM; in test [5], > 100 µM; in test [6] it was > 100 µM; in test [7] it was > 100 µM. Moreover, the TGI in test [8] and in test [9] was > 100 µM each time.
For `N#Cc1cc(S(=O)(=O)Nc2nc3cc(Cl)ccc3o2)c(SCc2ccccc2)cc1Cl`, the GI50 is 14.7 µM in test [1]; 12.3 µM in test [2]; 16.2 µM in test [3]; 18.5 µM in test [4]; 10.7 µM in test [5]; 14.3 µM in test [6]. In addition, the results for the GI50 in test [10], in test [7] and in test [9] were 12.6 µM, 13.6 µM and 13.4 µM, respectively. Also, the TGI is 32.2 µM in test [1]; 24.7 µM in [2]; 29.7 µM in test [3]; 35.1 µM in [4]; 22.5 µM in test [5]; 27.4 µM in [6]. For the same molecule, the TGI in test [10] amounted to 25.1 µM; in test [7] it was 26.5 µM; in test [9] it was 26.2 µM.
With `Cc1cc(C)nc(NS(=O)(=O)c2ccc(Nc3c4ccccc4nc4c(C(=O)NCCN(C)C)cccc34)cc2)n1`, the TGI turned out to be 20.1 µM in test [1], 5.89 µM in [2], 17.8 µM in test [6] and 10.7 µM in [7].
On to `O=C1OC(=O)C([Se]c2ccccc2)=C1[Se]c1ccccc1`, for which the TGI in [1], in test [4], in test [6] and in test [7] was > 100 µM throughout.
As for `CCc1ccc2c(c1)N(CCO)C1=C(C(=O)OC1)C2c1cc(OC)c(OC)c(OC)c1` (centres undefined), the GI50 in test [1] was 0.3 µM; in [2] it was 0.457 µM; in test [4], 0.599 µM; in test [6] it was 0.176 µM; in [10], 0.327 µM; in test [7] it was 0.263 µM. Further, the values for the GI50 in test [8] and in test [9] were 0.174 µM and 0.564 µM, respectively. The TGI in test [1] is > 19.8 µM; in test [2], > 50 µM; in test [4], > 50 µM; in [6] it was > 30.4 µM; in test [10], > 10.3 µM; in [7], > 50 µM. The TGI in test [8] was 0.856 µM; in test [9], > 15.7 µM.
Turning to `O=C1C(=O)C2(CC1S(=O)(=O)c1ccccc1)c1ccccc1-c1ccccc12` (centres undefined), the TGI in [1] amounted to 76.7 µM; in test [2], 47 µM; in [4], 61.6 µM; in [6], 59.3 µM; in test [10], 30.1 µM; in test [7], 40.4 µM.
`Cc1ccc(OC(=O)N2C/C(=C\c3ccccc3)C(=O)/C(=C/c3ccccc3)C2)cc1`: the TGI in test [1] was 98.5 µM; in test [2] it was 85 µM; in [4], > 100 µM; in test [5], 70.2 µM; in test [6], > 51.7 µM; in [10] it was > 37 µM. Further, the TGI in [7] is > 100 µM; in test [8], > 100 µM; in test [9], 88 µM.
As for `O=C(/C=C/c1ccccc1O)c1ccccc1Cl`, the TGI in test [1], in test [2], in test [4], in test [6], in test [10] and in test [7] was > 100 µM throughout.
Consider `COc1ccc(Br)c(C(=O)N2CCc3ccccc32)c1N`, for which the TGI in test [2], in [6], in [10] and in test [7] was > 100 µM in each case.
Consider `C1=CC2CCC1CN2CCC1CNc2ccccc21` (centres undefined), for which the TGI in test [1], in test [2], in test [6], in test [10] and in [7] was > 100 µM throughout.
As for `COc1cc(OC)c2c(=O)c3cccc([N+](=O)[O-])c3n(C)c2c1`, the TGI in test [1], in test [2], in test [4], in [6] and in [7] was > 100 µM throughout.
Take `COc1cccc(/C=N\NC(=O)C(C)SC(C)C(=O)N/N=C/c2cccc(OC)c2)c1` (centres undefined): the TGI in test [1] was 97.5 µM; in [2], > 85.5 µM; in test [4] it was > 80.8 µM; in test [6], > 100 µM; in test [10], 47.5 µM; in [7], 45.5 µM.
As to `COc1ccc(C2=Nn3c(nnc3-n3nc(C)cc3C)SC2)cc1`, the GI50 in [1] was 0.0806 µM; in test [2], 0.212 µM; in test [4] it was 0.0443 µM; in test [5], 0.177 µM; in test [6], 0.0351 µM; in test [10] it was 0.254 µM. Further, the GI50 in test [7] is 0.0831 µM; in test [8] it was 0.04 µM; in test [9], 0.192 µM. The TGI was > 100 µM in test [1]; > 100 µM in [2]; > 43.4 µM in test [4]; > 100 µM in test [5]; > 100 µM in test [6]; > 100 µM in test [10]. Moreover, the TGI in test [7] was > 100 µM; in test [8], 1.25 µM; in [9] it was > 100 µM.
Consider `CCN(c1ccccc1)[C@H]1C(=O)N(c2ccc([N+](=O)[O-])cc2)[C@H]1c1ccc(OC)cc1`, for which the TGI in [1], in test [2], in test [4], in test [6], in [10] and in [7] was > 100 µM throughout.
`Clc1ccc(CN2CCCN(Cc3ccc(Cl)cc3)C2c2cc3ccccc3c3ccccc23)cc1`: the TGI in test [1], in [2], in [3], in [4], in [5] and in test [7] was > 100 µM throughout. Besides, the TGI in [8] and in test [9] was > 100 µM each time.
For the molecule `Cc1ccc2ccc(-c3ccccc3)c3c2c1C(=O)c1ccccc1C3=O`, the TGI in [1], in test [2], in test [6], in test [10] and in test [7] was > 100 µM throughout.
